Measured values: ChEMBL document CHEMBL6153167, “Development of the Pyrido[2,3-d]pyrimidin-7(8H)-one Scaffold toward Potent and Selective NUAK1 Inhibitors” (ACS Med Chem Lett, 2025)

Key:
[1] = Unbound brain-to-plasma concentration ratio (Kp,uu, brain) in ICR mouse at 2.5 mg/kg, iv and measured upto 6 hrs by LC-MS/MS analysis; format: ADME, organism-based; conditions: read-out: K(p,uu,brain)
[2] = Protein binding in mouse plasma assessed as fraction unbound at 10 uM incubated for 6 hrs with rotation by dialysis based LC-MS/MS analysis; format: ADME, cell-free
[3] = Selectivity ratio of IC50 for inhibition of MARK3 (unknown origin) to IC50 for inhibition of NUAK1 (unknown origin)

| Kp uu at 6 h [1] | fraction unbound at 6 h, 10 µM [2] | Ratio IC50 [3] | SMILES |
| --- | --- | --- | --- |
| 0.036 | 0.006 | – | CN1CCN(c2ccc(Nc3ncc4cc(C#N)c(=O)n(C5CCCC5)c4n3)cc2)CC1 [NARAZACICLIB] |
| – | – | > 11 | Cc1cc(=O)n(C2CCCC2)c2nc(Nc3ccc(N4CCNCC4)cc3)ncc12 |
| – | – | 2290 | CC(C)N1CCN(c2ccc(Nc3ncc4ccn(CC5CCOC(C)(C)C5)c4n3)cc2)CC1 (stereo not given) |

| SMILES | Kp uu at 6 h [1] | fraction unbound at 6 h, 10 µM [2] | Ratio IC50 [3] |
| --- | --- | --- | --- |
| CN1C2CC1CN(c1ccc(Nc3ncc4ccn(CC5CCOCC5)c4n3)cc1)C2 | – | – | 2000 |
